The source of these data is US10087156B2, “Methods and compositions related to retinoid receptor-selective pathway” (Sanford Burnham Prebys Medical Discovery Institute, priority 2010, dated 2018).

“Also recorded” adds a separate entry of the source.

Experiment [1] deals with T1, interaction of p85α with RXRα/Δ80 (Homo sapiens, UniProt P19793).
T1 construct: expressed in transfected cells; host or cells: A549 human lung cancer cells
In words: Co-immunoprecipitation of Flag-p85α and Myc-RXRα/Δ80 in A549 cells. The experiment is classed as cell-based. To be noted: 50 μM, with or without TNFα. As to the method:
Caco-2 and MEF cells were treated with the indicated concentration of Sulindac or K-80003 for 30 min, then stimulated with all-trans-RA (10^-7 M) for 15 min. AKT activation was analyzed by immunoblotting. PC3 cells transfected with RXRα or RARγ siRNA were pre-treated with K-80003 (50 μM) for 1 hr before exposed to TNFα (10 ng/ml) for 30 min (pRXRα: phosphorylated RXRα). A549 cells were transfected with Flag-p85α and Myc-RXRα/[…], treated with Sulindac (50 μM) or K-80003 (50 μM) for 1 hr, exposed to TNFα for 30 min, and analyzed by coimmunoprecipitation using an anti-Flag antibody. […] (FIG. 8C). Reducing RXRα expression by siRNA largely impaired the inhibitory effect of K-80003 on AKT activation in PC3 cells. […] Thus, inhibition of AKT activation by K-80003 was also dependent on RXRα expression (FIG. 8B). For the CoIP assay, cells or cells transfected with indicated expression vectors were suspended in lysis buffer (50 mM Tris-HCl, pH 7.4; 150 mM NaCl; 20 mM EDTA; 1% NP-40; 1 mM PMSF; […] Leupeptin; […] Aprotinin; 0.1 mM Na3VO4; and 1 mM DTT). […] Immunoreactive products were detected by chemiluminescence with an enhanced chemiluminescence system (ECLTM) (Amersham Biosciences, Amersham, UK).

A further experiment deals with cancer. In words: Preventing cancer in a human patient. The experiment is classed as in vivo. To be noted: 150 mg tablet twice daily. On the procedure: A human patient with an elevated risk of developing cancer relative to the general population is identified and instructed to take a 150 mg tablet containing the active ingredient K-80003 twice daily.
In the next experiment the target is T2, COX-1 (Ovis aries, UniProt P05979).
T2 construct: purchased Cayman Chemical 700100
T2 sequence (P05979 25-600): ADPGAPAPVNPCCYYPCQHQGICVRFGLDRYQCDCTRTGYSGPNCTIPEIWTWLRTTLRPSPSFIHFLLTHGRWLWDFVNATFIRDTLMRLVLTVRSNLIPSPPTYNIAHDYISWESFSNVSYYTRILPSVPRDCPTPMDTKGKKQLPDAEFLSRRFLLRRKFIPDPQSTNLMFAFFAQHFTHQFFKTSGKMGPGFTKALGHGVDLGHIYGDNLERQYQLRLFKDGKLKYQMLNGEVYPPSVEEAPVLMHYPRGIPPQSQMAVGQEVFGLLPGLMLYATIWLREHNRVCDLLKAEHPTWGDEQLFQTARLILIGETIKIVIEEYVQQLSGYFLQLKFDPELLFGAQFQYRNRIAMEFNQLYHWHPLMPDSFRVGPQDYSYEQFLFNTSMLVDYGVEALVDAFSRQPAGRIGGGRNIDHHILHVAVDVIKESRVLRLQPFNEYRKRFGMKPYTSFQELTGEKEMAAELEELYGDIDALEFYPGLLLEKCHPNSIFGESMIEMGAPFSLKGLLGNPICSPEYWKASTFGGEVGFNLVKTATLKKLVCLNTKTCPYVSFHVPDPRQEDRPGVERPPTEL
The experiment can be described thus: COX activity assay. It is filed as biochemical. On the procedure:
(§1) COX Fluorescent Activity Assay Kit (700200), COX Fluorescent Inhibitor Screening Assay Kit (700100) and Prostaglandin E2 Enzyme Immunoassay (EIA) Kit (514010) were obtained from Cayman Chemical (Ann Arbor, Mich.). COX-1 and COX-2 activity assay were performed according to the manufacturer's protocol.

For another experiment, the target named is T3, COX-2 (Homo sapiens, UniProt P35354).
T3 construct: purchased Cayman Chemical 700100
T3 sequence (P35354 18-604): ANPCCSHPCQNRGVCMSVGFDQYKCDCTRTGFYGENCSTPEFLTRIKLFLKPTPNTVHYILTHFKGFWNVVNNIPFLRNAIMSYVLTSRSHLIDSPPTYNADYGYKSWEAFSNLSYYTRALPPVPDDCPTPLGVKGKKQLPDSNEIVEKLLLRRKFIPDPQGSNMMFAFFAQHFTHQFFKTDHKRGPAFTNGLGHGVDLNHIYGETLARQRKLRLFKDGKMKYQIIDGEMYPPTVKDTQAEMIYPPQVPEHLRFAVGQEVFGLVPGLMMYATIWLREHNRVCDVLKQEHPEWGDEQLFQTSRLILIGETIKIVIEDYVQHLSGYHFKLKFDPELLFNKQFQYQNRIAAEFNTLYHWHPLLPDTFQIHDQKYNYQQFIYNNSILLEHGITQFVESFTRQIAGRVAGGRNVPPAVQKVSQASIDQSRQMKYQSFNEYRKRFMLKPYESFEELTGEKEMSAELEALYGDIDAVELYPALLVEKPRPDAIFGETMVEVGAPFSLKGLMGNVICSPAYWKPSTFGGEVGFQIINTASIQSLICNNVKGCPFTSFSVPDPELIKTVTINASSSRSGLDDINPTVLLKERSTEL
The experiment can be described thus: COX activity assay. It is filed as biochemical. On the procedure:
as §1

Another experiment deals with RXRα LBD (Homo sapiens, UniProt P19793). In words: Proteolytic protection assay (chymotrypsin sensitivity). It is filed as binding. The conditions noted are these: 100 μM. As to the method:
Altered sensitivity of RXRα ligand-binding domain (LBD) to chymotrypsin (ug/ml) by Sulindac (100 μM) (FIG. 1C) and differential scanning calorimetry (DSC) scans comparing ^19F NMR spectra of Sulindac (100 μM) in the absence and presence of 10 μM RXRα LBD or Nur77 protein (FIG. 1D) were also determined. Binding to RXRα was confirmed by altered sensitivity of RXRα to chymotrypsin digestion by Sulindac (FIG. 1C) and differential scanning calorimetry (DSC) (FIG. 1D). In addition, inhibition of SR11237 (10^−6 M)-activated RXRα transactivation by Sulindac was measured (FIG. 1F, see Example 2).
RXRα LBD was synthesized by in vitro transcription-translation using rabbit reticulocyte lysates (Promega, Fitchburg, Wis.) as described previously (Kolluri, S. K. et al., Proc Natl Acad Sci USA 102 (7), 2525-2530 (2005); Zhang, X. K. et al., Nature 355 (6359), 441-446 (1992); Zhang, X.-K. et al., Nature. 358 (6387), 587-591 (1992)). In vitro translated ^35[S]methionine labeled RXRα-LBD was preincubated with solvent (1% DMSO), Sulindac (100 μM) or 9-cis-RA (10^−7 M) for 30 min. and then digested with indicated concentration of chymotrypsin. Digested fragments were separated by PAGE.

Another experiment addresses RARγ protein (Homo sapiens, UniProt P13631). In words: Ligand-binding assay with [3H]all-trans-RA. To be noted: competition with [3H]all-trans-RA. As to the method:
Purified RARγ protein was incubated with [^3H]all-trans-RA in the presence or absence of Sulindac or unlabeled all-trans RA. Bound [^3H]all-trans-RA was quantitated by liquid scintillation counting.

The subject of another experiment is AKT. The experiment can be described thus: Basal AKT activation by immunoblotting. It is filed as cell-based. To be noted: various cancer cell lines incl. SW480 and HCT116, 100 μM, 1 hr. On the procedure: HepG2, SW480, RAW264.7, HCT116, LNCaP, PC3, ZR-75-1, and HaCat cells were starved overnight and treated with Sulindac (100 μM) for 1 hr and analyzed for AKT activation by immunoblotting (FIG. 3A). HepG2 cells were also transfected with RXRα siRNA for 48 hours, treated with Sulindac (100 μM) for 1 hour, and analyzed for AKT activation and RXRα expression by immunoblotting (FIG. 3B).
For immunoblotting, cell lysates were boiled in SDS sample buffer, resolved by SDS-polyacrylamide gel electrophoresis, and transferred to nitrocellulose. After transfer, the membranes were blocked in 5% milk in TBST (10 mM Tris-HCl, pH. 8.0, 150 mM NaCl, 0.05% Tween 20) containing antibody. The membranes were then washed three times with TBST, then incubated for 1 hr at room temperature in 5% milk in TBST containing horseradish peroxide-linked anti-immunoglobulin.
In general terms: A western blot detects proteins with antibodies after separation by electrophoresis.

A further experiment deals with T4, RXRα/PPARγ heterodimer (Homo sapiens, UniProt P19793).
T4 construct: expressed in transfected cells; host or cells: CV-1 green monkey kidney cells
T4 sequence (P19793 whole entry): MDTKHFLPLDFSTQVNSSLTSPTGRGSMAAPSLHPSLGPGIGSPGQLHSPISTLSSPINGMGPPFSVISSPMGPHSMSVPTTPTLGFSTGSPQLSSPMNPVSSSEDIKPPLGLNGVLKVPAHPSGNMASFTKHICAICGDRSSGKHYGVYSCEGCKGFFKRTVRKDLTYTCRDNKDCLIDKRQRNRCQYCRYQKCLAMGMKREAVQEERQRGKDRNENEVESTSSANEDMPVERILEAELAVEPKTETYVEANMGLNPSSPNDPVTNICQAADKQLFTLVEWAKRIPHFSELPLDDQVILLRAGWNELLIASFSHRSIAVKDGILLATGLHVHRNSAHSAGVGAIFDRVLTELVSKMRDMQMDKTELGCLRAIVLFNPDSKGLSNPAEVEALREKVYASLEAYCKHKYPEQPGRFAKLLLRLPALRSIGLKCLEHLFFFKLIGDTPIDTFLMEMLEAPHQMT
T4 sequence (P37231 whole entry partner): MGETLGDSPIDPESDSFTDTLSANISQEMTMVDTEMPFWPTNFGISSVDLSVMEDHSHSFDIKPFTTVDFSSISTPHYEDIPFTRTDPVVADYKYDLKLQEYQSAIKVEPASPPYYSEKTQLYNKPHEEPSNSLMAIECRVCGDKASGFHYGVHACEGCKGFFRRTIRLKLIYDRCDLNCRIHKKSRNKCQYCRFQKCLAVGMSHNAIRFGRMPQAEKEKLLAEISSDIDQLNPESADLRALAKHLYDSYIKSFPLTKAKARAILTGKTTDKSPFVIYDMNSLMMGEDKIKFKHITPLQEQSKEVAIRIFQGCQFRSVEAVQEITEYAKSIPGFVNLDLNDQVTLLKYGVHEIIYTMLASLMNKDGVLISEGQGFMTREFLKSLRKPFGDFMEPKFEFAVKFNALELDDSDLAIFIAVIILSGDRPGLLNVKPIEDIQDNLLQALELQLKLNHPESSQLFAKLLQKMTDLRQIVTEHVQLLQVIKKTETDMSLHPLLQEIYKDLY
The experiment can be described thus: DR1 tk-CAT reporter assay in CV-1 cells. The experiment is classed as cell-based. To be noted: ciglitazone 10^−6 M. On the procedure:
Receptor expression vectors and a reporter gene (TREpal2-tk-CAT for RXRα/TRα heterodimers (FIG. 9C), and DR1 tk-CAT for RXRα/PPARγ heterodimer (FIG. 9B)) were transiently transfected into CV-1 cells. Cells were treated with or without ligands (ciglitazone, 10^−6 M; T3, 10^−7 M) in the presence or absence of Sulindac. CAT activity was determined.
Cells (1×10^5 cells/well) seeded in 24-well plates were transiently transfected using a modified calcium phosphate precipitation procedure as described (Kolluri, S. K. et al., Proc Natl Acad Sci USA 102 (7), 2525-2530 (2005); Cao, X., et al., Mol Cell Biol 24(22), 9705-9725 (2004)).
On the technique in general: In a reporter assay the amount or activity of a reporter protein is the signal.

T1 sequence (P19793 81-462 limits assumed, stated change not applied): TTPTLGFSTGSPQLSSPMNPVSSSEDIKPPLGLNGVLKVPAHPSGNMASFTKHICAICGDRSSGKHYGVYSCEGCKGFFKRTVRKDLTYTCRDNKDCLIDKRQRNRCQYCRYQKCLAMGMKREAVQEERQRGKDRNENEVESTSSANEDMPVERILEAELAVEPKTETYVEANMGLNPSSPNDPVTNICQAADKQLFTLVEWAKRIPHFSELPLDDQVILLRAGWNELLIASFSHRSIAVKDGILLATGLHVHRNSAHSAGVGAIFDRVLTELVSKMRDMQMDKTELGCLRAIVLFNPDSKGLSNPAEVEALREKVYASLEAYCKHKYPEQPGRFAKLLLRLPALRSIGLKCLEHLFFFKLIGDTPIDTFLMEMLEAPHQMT
RARγ protein, sequence (P13631 whole entry, species assumed): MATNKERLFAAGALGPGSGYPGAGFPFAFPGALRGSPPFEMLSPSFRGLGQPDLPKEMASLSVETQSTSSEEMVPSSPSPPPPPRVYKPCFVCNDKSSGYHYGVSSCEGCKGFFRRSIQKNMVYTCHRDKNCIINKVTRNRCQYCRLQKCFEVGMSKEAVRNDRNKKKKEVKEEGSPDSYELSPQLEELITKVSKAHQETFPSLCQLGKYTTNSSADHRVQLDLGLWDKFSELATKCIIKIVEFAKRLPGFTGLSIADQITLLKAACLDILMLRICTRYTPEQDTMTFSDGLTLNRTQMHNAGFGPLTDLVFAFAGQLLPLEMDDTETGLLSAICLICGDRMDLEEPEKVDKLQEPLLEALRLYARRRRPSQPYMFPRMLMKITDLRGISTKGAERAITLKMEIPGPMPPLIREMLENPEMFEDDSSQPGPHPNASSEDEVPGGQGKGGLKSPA
RXRα LBD, sequence (P19793 227-458 limits assumed): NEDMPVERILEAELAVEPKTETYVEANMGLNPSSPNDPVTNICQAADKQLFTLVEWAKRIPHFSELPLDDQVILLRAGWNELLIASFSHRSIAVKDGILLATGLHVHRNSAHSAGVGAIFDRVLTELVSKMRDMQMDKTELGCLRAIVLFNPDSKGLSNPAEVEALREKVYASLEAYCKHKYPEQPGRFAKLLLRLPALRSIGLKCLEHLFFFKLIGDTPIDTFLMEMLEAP

Regarding `CC1=C(CC(=O)O)c2cc(F)ccc2/C1=C\c1ccc(C(C)C)cc1` [K-80003, (Z)-2-(3-(4-Iso-propylbenzylidene)-6-fluoro-2-methyl-3H-inden-1-yl)acetic acid], the “inhibition of interaction of p85α with RXRα/Δ80” value in experiment [1] is given as “much more effective than Sulindac; also recorded: potently inhibited”. Besides, in the experiment on cancer, the “development of cancer in patient at elevated risk” value is given as “does not develop cancer”. For the same compound, the “inhibition of COX-1 activity” value against COX-1 is on record as “no detectable inhibition”. Besides, at COX-2, the “inhibition of COX-2 activity” value is “no detectable inhibition”.

Regarding `CSc1ccc(/C=C2/C(C)=C(CC(=O)O)c3cc(F)ccc32)cc1` [Sulindac, (Z)-2-(3-(4-(Methylthio)benzylidene)-6-fluoro-2-methyl-3H-inden-1-yl)acetic acid], on RXRα LBD, the “binding to RXRα by altered sensitivity to chymotrypsin digestion” value is given as “confirmed”. The “binding to RARγ” value on RARγ protein is reported as “did not bind”. Further, the “inhibition of basal AKT activation” value in the experiment on AKT was “Significant inhibition”. Further, the “transactivation of RXRα/PPARγ heterodimers (CAT activity)” value at RXRα/PPARγ heterodimer is on record as “inhibited transactivation”.
